Measurements: patent US20030148963A1 (priority 2000, published 2003)
Marks after values point to notes of the source that are not given here.

Experiments:
[1] = test system: S. aureus-induced arthritis; assay: Histopathological and immunohistochemical examination of joints, S. aureus arthritis; type: in vivo, NMRI mice
Procedure: The mice were sacrificed 6 days after bacterial inoculation One front and one hind paw from each animal in both groups (etoposide-treated and controls) were removed. Histopathological examination was performed after routine fixation, decalcification, paraffin embedding, and staining with hematoxylin and eosin. All the slides were coded and the joints were studied with regard to synovial hypertrophy (defined as a synovial membrane thickness of more than two cell layers), pannus formation (synovial tissue overlaying the joint cartilage), and cartilage and bone destruction.
In another experiment, mice were killed by cervical dislocation 6 days after bacterial inoculation, all four limbs were removed and demineralized by a procedure detailed in an earlier report. The demineralized specimens were mounted on cryostat chucks, frozen in isopentane prechilled by liquid nitrogen, and kept at −70° C. until cryosectioned. Six μm-thick sections were cut frontally to permit simultaneous inspection of most joints within the paw. All sections were fixed in cold acetone for 5 min, washed in PBS, and depleted of endogenous peroxidase by treatment with 0.3% H2O2 for 5 min. The sections were incubated overnight in a humid atmosphere at +4° C. with 50 μl portions of unlabelled rat monoclonal antibody specific for macrophages (Mac-3, clone M3/84 from PharMingen), diluted in PBS containing 1% BSA. Biotin-labelled rabbit antl-rat Ig diluted in PBS-BSA was used as secondary antibody. Binding of secondary antibodies was detected by stepwise incubation with avidin-biotin-peroxidase complexes (ABC) and a buffert containing 3-amino-9-ethyl-carbazole and H2O2. All sections were counterstained with Mayer's hematoxylin.

IL-6 [2] = assay: Serum IL-6 in S. aureus infected mice (B9 bioassay); type: in vivo, NMRI mice; details: six days after 1.4×10^7 CFU S. aureus; 12.5 mg/kg from three days prior; mean ± SEM, n = 6
Procedure: The cell line B 13,29, subclone B9, which is dependent on IL-6 for its growth, was used for IL-6 determinations. The cells were seeded into microtiter plates at a concentration of 5000 cells/well and samples in different dilutions were added. One μCi of (3H) TdR (Amersham) was added after 68 h of culture, and the cells were harvested 4 h later. The results were compared with recombinant IL-6 standard (Genzyme, Cambridge, Mass.). The B9 cells were previously shown not to react with several recombinant cytolines including IL.-1, IL.-, L-2, IL-3, IL-5, granulocyte/macrophage CS17, TNF.-, and IFN.-, There was only a weak reactivity with IL-4 [14].

TNF-α [3] = assay: Serum TNF-α in S. aureus infected mice (ELISA); type: in vivo, NMRI mice; details: six days after 1.4×10^7 CFU S. aureus; 12.5 mg/kg from three days prior; mean ± SEM, n = 6
Procedure: The levels of TNF.- were determined using sandwich enzyme-linked immunosorbent assays (ELISA) kit from R&D Systems Minneapolis, Minn.).

IFN-γ = assay: Serum IFN-γ in CII immunized mice (ELISA); type: in vivo, B10.QxDBA/1 female mice; details: serum at end of experiment, mean ± SEM
Procedure: For quantification of serfu CII antibodies, 96-well plates (Nunc, Roskilde, Denmark) were coated overnight at 4° C. with 10 μg/ml of native CII. Standards and samples were diluted in 0.5% BSA-PBS. Biotinylated F(ab/)2 fragments of goat anti-mouse IgG (Jackson ImmunoResearch Laboratories, West Grove, Pa.) was used as secondary antibody. Development was performed using horseradish peroxidase 0.5 μg/ml and 2.5 mg of the enzyme substrate 2,2-azino-bis-(3-ethylbenzothiazoline sulfonic acid) (Sigma) per mal in citrate buffer (pH 4.2), containing 0.0075% H2O2. The absorbance was measured at 405 nm in a SPECTRAmax spectrophotometer (Molecular Devices, Calif.). IFN-γ levels in sera were quantified with an ELISA system previously described (13). Ninety-six well plates (Nunc) were coated with 2 μg/ml of rat anti-mouse IFN-γ mab (Pharmingen, San Diego, Calif.). Sera, recombinant IFN-γ (Genzyme, Cambridge, Mass.), biotinylated antibodies were all diluted in 0.05 M Tris pH 7.4+0.015 M NaCl. A biotinylated anti mouse IFN-γ antibody (2 μg/ml) (Pharmigen) was used as secondary antibody. After incubation with extravidin alkaline phosphatase 0.5 ?g/ml and alkaline phosphatase substrate 1 mg/ml (Sigma) the absorbance was measured at 405 nm. Interleukin 6 (IL-6) levels in serum and supernatants were measured by a bioassay using cell line B13.29, subclone B9, which is dependent on IL-6 for growth. […]

MIP-1α = assay: Serum MIP-1α in CII immunized mice (ELISA); type: in vivo, B10.QxDBA/1 female mice; details: serum at end of experiment, mean ± SEM
Procedure: (§1) Levels of TNF, IL-1b, RANTES, and macrophage inflammatory protein (MIP)-1α were determined using sandwich ELISA from R&D Systems (Minneapolis, Minn.).

IL-6 [4] = type: cell-based; details: spleen cells of mice given 12.5 mg/kg 4 days a week for 4 weeks; mean ± SEM, 4 mice
TNF-α [5] = type: cell-based; details: spleen cells of mice given 12.5 mg/kg 4 days a week for 4 weeks; mean ± SEM, 4 mice
RANTES = RANTES release by IC-21 macrophage cell line; type: cell-based, murine; details: data not shown
Procedure: as §1
These cells display many typical features of the macrophage phenotype and are therefore a suitable model for studying cytoline and chemokine release during inflammation (16). The cells were maintained in continous culture using RPMI-1640 supplemented with 10% FCS, L-glutamine, and gentamycin. When the cells had grown to about 70% confluency, they were seeded into a 24-well-plate (Nunc) at a concentration of 1×10^5 per well and incubated at 37° C. in 5% CO2 for 24 h. […] After 24 h of incubation, the cells were washed once with PBS, and reincubated with medium containing different concentrations (1, 10, 100, 1000 ng/ml) of LPS (Difco) and IFN-γ (10, 50, 100 u/nml). The interferon-γ was purified from the supernatants from Chinese hanater ovary (CHO) cells transfected with the murine IFN-γ gene (hybridoma kindly provided by Dr. Morris, Department of Biological Sciences, University of Warwick, Coventry, UK). After 2 and 24 h of incubation the supernatants were collected and stored at −20° C. until analysis.

[6] = Etoposide-treated (from day 40)

SMILES: COc1cc([C@@H]2c3cc4c(cc3[C@@H](O[C@@H]3O[C@@H]5CO[C@@H](C)O[C@H]5[C@H](O)[C@H]3O)[C@H]3COC(=O)[C@H]23)OCO4)cc(OC)c1O [Etoposide]
- Mice with cartilage and bone destructions ([1]; 6 days after S. aureus inoculation, controls 8 out of 10): 4 out of 8
- Mice with synovial hypertrophy ([1]; 6 days after S. aureus inoculation, controls 9 out of 10): 4 out of 8
- Numbers of Mac-3 positive cells in joints ([1]; S. aureus infected, etoposide vs PBS, data not shown): did not show any significant differences
- Serum IL-6 (IL-6 [2]): 11.927 ± 4.610^b pg/ml
- Serum TNF-α (TNF-α [3]): 30 ± 12 pg/mL
- IFN-g (IFN-γ; Etoposide-pretreated): 1848 ± 248^c u/ml
- IFN-g (IFN-γ; [6]): 2094 ± 199^b u/ml
- MIP-1a (MIP-1α; Etoposide-pretreated): 3.0 ± 0.5^c pg/ml
- MIP-1a (MIP-1α; [6]): 2.9 ± 0.3^c pg/ml
- IL-6, Con A (IL-6 [4]): 74 ± 15^a) pg/ml
- IL-6, TSST-1 (IL-6 [4]): 10 ± 3 pg/mL
- TNF-α, Con A (TNF-α [5]): 6 ± 0.5^a) pg/ml
- TNF-α, TSST-1 (TNF-α [5]): 6 ± 0.4^a) pg/ml
- RANTES release (RANTES): upregulated
